Source: patent US5506102A (priority 1993, dated 1996)

Assays:
[1] = target: T1, glucocorticoid receptor (GR) (Homo sapiens, UniProt P04150); conditions: high concentrations, dexamethasone present, FIG. 8B
T1 sequence (P04150 1-777): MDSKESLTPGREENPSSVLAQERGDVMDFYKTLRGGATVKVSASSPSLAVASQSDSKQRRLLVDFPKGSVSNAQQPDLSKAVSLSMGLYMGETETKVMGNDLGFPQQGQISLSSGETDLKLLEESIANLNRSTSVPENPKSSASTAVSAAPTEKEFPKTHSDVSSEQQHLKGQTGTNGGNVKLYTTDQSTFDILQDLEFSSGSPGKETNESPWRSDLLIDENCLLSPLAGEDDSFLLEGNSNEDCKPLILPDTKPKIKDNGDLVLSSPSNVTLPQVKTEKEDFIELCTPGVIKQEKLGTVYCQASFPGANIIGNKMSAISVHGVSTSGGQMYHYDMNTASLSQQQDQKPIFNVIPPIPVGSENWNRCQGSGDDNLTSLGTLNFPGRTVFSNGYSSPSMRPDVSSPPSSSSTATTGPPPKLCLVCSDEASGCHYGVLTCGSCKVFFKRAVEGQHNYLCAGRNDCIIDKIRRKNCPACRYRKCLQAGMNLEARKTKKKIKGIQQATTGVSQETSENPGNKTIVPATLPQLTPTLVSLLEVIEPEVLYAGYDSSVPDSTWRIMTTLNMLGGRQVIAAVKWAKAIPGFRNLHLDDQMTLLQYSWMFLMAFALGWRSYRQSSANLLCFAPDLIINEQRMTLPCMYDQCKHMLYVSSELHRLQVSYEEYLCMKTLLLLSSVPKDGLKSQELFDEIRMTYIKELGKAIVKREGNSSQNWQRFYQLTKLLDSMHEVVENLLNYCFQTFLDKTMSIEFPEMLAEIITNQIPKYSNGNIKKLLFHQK
Method: Cells were seeded in 12-well, 96-well or 10 cm tissue culture plates. […] 20 μg of DNA/ml of transfection buffer were used in each transfection reaction. In this mix, the concentration of the luciferase plasmids and that of the internal control plasmid pCH110 (Pharmacia, Inc.), which contains the gene for the β-galactosidase enzyme, remained constant ([…] of each plasmid DNA), while the receptor plasmid concentration varied as indicated for each experiment. Different amounts of receptor parental plasmid, pSV2-neo (Dr. Bert O'Malley, Baylor College of Medicine, Houston, Tex.) was included to keep constant the total amount of the SV40 enhancer vectors. pGEM4 plasmid DNA (Promega Biotech, Madison, Wis.) was added to balance the total DNA concentration to 20 g/reaction. For the 96-well plate experiments, transfections were performed on a Biomek 1000 Automated Laboratory Workstation (Beckman Instruments, Fullerton, Calif.).
Cells were seeded 24 hours prior to transfection in the fiat-bottom tissue culture plates ([…]) in phenol red-free DMEM containing 10% FCS. […] Using calcium phosphate co-precipitation, DNA solution was added dropwise with vortexing into an equal volume of 2X HBS pH 6.9 (280 mM NaCl. 50 mM HEPES, 1.5 mM Na2 HPO4) and precipitates were allowed to form for 20 minutes. Cells were transfected ( […] of DNA mix/well) for 6 hours and then washed with phosphate-bufferedsaline (PBS) to remove the precipitate. Cells were incubated for an additional 24 hours in phenol red-free medium containing 10% charcoal-treated FCS, with or without hormones as indicated in the text. Cell extracts were prepared as described by Berger et al., Supra, and assayed for luciferase and β-galactosidase activities. All determinations were performed in triplicates in at least two independent experiments, and were normalized for transfection efficiency by using β-galactosidase as an internal control.

PR-B = target: T2, PR-B (Homo sapiens, UniProt P06401); assay: Direct inhibition of PR-B transcriptional activity, CV-1 cells; format: cell-based; parameters: expressed in transfected cells; host or cells: CV-1, HepG2 (PRE2 tk-LUC); HeLa, also HepG2 and CV-1 (TAT promoter); conditions: read-out: IC50 (50% maximal Inhibitory concentration), transcriptional activity of PR-B; in the presence of 10^-8 progesterone
T2 sequence (P06401 1-933): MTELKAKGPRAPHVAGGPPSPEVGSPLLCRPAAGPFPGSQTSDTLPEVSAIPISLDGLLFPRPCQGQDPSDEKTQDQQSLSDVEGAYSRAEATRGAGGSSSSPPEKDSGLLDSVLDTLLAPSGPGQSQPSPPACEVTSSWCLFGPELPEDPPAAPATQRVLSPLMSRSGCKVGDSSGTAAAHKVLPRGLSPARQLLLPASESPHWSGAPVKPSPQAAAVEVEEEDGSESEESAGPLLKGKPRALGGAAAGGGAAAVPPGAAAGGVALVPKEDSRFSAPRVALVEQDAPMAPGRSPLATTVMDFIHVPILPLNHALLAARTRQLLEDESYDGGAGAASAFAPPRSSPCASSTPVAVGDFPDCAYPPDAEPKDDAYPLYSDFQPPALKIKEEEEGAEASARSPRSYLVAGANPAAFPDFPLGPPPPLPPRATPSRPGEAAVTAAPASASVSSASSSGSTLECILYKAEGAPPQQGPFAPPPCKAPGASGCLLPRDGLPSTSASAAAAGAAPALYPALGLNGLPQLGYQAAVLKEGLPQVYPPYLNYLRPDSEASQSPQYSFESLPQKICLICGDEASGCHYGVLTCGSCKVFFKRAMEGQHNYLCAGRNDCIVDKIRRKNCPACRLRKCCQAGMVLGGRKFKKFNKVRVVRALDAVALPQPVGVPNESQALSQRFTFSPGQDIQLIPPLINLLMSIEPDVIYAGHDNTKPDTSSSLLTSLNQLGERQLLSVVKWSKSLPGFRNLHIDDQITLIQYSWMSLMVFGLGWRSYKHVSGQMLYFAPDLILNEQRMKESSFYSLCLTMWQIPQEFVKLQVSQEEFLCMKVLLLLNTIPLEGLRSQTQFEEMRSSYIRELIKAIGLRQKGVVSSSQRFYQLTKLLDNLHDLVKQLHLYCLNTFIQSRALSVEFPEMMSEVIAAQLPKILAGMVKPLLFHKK

direct inhibition of GR function [1]: directly inhibited GR function
IC50 (PR-B): 0.6 nM
Structure (SMILES): CC#C[C@]1(O)CC[C@H]2[C@@H]3CCC4=CC(=O)CCC4=C3[C@@H](c3ccc(C(C)=O)cc3)C[C@@]21C [ZK112993]
